{
  "source": "patent US20260234165A1",
  "about": "“MACROCYCLIC COMPOUNDS, PREPARATION METHOD THEREFOR, AND USE THEREOF” (GENFLEET THERAPEUTICS (SHANGHAI) INC., priority 2004, published 2026)",
  "type_in_all_cases": "cell-based, human",
  "key": {"[1]": {"tested_on": "p-ERK in AsPC-1 cells (KRAS G12D mutation)", "test": "Cell p-ERK assay (HTRF) in AsPC-1 cells", "details": "AsPC-1 cells, 3 h compound incubation, HTRF p-ERK T202/Y204, read-out: AsPC-1 p-ERK IC50", "procedure": "(§1) AsPC-1 cells were purchased from ATCC, Cat. No. CRL-1682: NCI-H441 cells were purchased from ATCC, Cat. No. HTB-174: RPMI-1640 medium was purchased from Gibco, Cat. No. I1875-093: FBS was purchased from Gibco, Cat. No. 10099-141C: penicillin/streptomycin double-antibiotic solution (PS) was purchased from Gibco, Cat. No. 15140-122: trypsin (containing EDTA) was purchased from Gibco, Cat. No. 25200-072; DMSO was purchased from VWRAMRESCO, Cat. No. 0231-500ML; 96-well cell culture plates were purchased from Corning, Cat. No. 3599: white-bottomed, opaque 96-well plates were purchased from Cisbio, Cat. No. 66PL96025; Advance ERK phospho-T202/Y204 kit was purchased from Cisbio, Cat. No. 64AERPEH; cell counter was purchased from CHEMOMETEC, model: NC-200; microplate reader was purchased from PerkinElmer, model: EnVision.\n(§2) AsPC-1, a human pancreatic cancer cell strain endogenously containing a KRAS^G12D mutation, was cultured in a complete medium containing RPMI-1640+10% FBS+1% PS. NCI-H441, a human non-small cell lung cancer cell strain endogenously containing a KRAS^G12V mutation, was cultured in a complete medium containing RPMI-1640+10% FBS+1% PS.\n(§3) The cells were digested with trypsin (containing EDTA), collected in their corresponding complete media, and counted. The density of the cell suspensions was adjusted with their corresponding complete media, and 10000 AsPC-1 cells or 20000 NCI-H441 cells per well were seeded into a 96-well cell culture plate, with the volume of the medium in each well being 80 μL.\n(§4) The cell culture plate was incubated in an incubator at 37° C. with 5% CO2 overnight. A series of 3.16-fold gradient dilutions of a 1000- compound stock solution were prepared with DMSO, and then diluted 200-fold with the complete medium described above to give 5′ compound stock solutions. On the day after cell seeding, 20 μL of the 5× compound stock solution was added to each cell culture well. As a result, the final concentration of the compound in the cell culture well became 1×, and the DMSO content in the well was 0.1%. In addition to the compound-treated wells described above, cell-containing DMSO control wells were also set. A complete medium containing 0.5% DMSO was added at 20 μL/well. After the mixture was well mixed, the culture plate was incubated in the incubator at 37° C. with 5% CO2 for another 3 h. The medium was then removed from the culture wells, and 50 μL of cell lysis buffer (from Advance ERK phospho-T202,Y204 kit) was added to each well. The mixture was well mixed and incubated for 30 min. Then, 16 μL of the mixture was transferred to a white-bottomed, opaque 96-well assay plate, and separately, 16 μL of cell lysis buffer was added to additional wells (serving as blank wells) in the assay plate. After the transfer was completed, 4 μL of p-ERK HTRF antibody mixture (from Advance ERK phospho-T202/Y204 kit) was added to each well of the assay plate, followed by a 4-hour incubation. The HTRF signal values (RLU) were then measured using a microplate reader, and the inhibition rate of the compound against p-ERK levels was calculated as follows: IR (%)=(RLUDMSO−RLUcompound)/(RLUDMSO−RLUblank)×100%, where RLUDMSO is the average HTRF signal value from the DMSO control well samples, RLUblank is the average HTRF signal value from the blank well samples, and RLUcompound is the HTRF signal value from the compound-treated well samples. Using an XLfit software, the IR (%) values were plotted against the logarithm of the compound concentrations, and the dose-response curves were fitted using the four-parameter method to calculate the IC50 values."}, "[2]": {"tested_on": "p-ERK in NCI-H441 cells (KRAS G12V mutation)", "test": "Cell p-ERK assay (HTRF) in NCI-H441 cells", "details": "NCI-H441 cells, 3 h compound incubation, HTRF p-ERK T202/Y204, read-out: H441 p-ERK IC50", "procedure": "as §1, §2, §3, §4"}, "NCI-H441 cells": {"tested_on": "NCI-H441 cells", "test": "3D cell proliferation assay (CellTiter Glo-3D), NCI-H441", "details": "Homo sapiens, NCI-H441, 3D cell proliferation (CellTiter Glo-3D), medium with 2% FBS, read-out: H441 AP IC50", "excerpt": "MIA PaCa-2 cells were purchased from ATCC, Cat. No. CRL-1420; AsPC-1 cells were purchased from ATCC, Cat. No. CRL-1682; NCI-H441 cells were purchased from ATCC, Cat. No. HTB-174: NCI-H1975 cells were purchased from ATCC. Cat. No. CRL-5908; DMEM medium was purchased from Gibco, Cat. No. 11995-065: RPMI-1040 medium was purchased from Gibco. Cat. No. H 18754093; FBS was purchased from Gibco, Cat. No. 10099-141C. penicillin, streptomycin double-antibiotic solution (PS) was purchased from Gibco, Cat. No. 15140-122; Horse serum was purchased from Gibco. Cat. No. 16050130: trypsin (containing EDTA) was purchased from Gibco, Cat. No. 25200-072; DMSO was purchased from VWRAMRESCO, Cat. No. 0231-500ML; 384-well cell culture plates were purchased from Corning, Cat. No. 3830; white-bottomed, opaque 384-well assay plates were purchased from Corning, Cat. No. 3570. CellTiter Glo-3D) kit was purchased from Promega. Cat. No. G9683; cell counter was purchased from CHEMOMETEC, model: NC-200: microplate reader was purchased from PerkinElmer, model: EnVision.\nMIA PaCa-2, a human pancreatic cancer cell strain endogenously containing a KRAS^G12C mutation, was cultured in a complete medium containing DMEM+10% FBS+2.5% Horse serum+1% PS. AsPC-1, a human pancreatic cancer cell strain endogenously containing a […] mutation, was cultured in a complete medium containing RPMI-1640+10% FBS+1% PS. NCI-H441 cells, a human lung cancer cell strain endogenously containing a […] mutation, were cultured in a complete medium containing RPMI-1640+10% FBS+1% PS. NCI-H1975, a KRAS wild-type human lung cancer cell strain whose cell proliferation depends on KRAS activity, was cultured in a complete medium containing RPMI-1640+10% FBS+1% PS.\nThe cells were digested with trypsin (containing EDTA), collected in their respective low-serum complete media containing 2% FBS (for MIA Paca-2 cell culture: DMEM+2% FBS+0.5% Horse serum+1% PS), and counted. After the cell density was adjusted as required, 200 MIA PaCa-2 cells, 800 AsPC-1 cells, 800 NCI-H441 cells, or 400 NCI-H1975 cells per well were seeded into a 384-well cell culture plate, with the volume of the medium in each well being 45 μL. The cell culture plate was incubated in an incubator at 37° C. with 5% CO2, overnight. A series of 3.16-fold gradient dilutions of a 1000× compound stock solution were prepared with DMSO, and then diluted 100-fold with the complete medium containing 2% FBS described above to give 10- compound stock solutions. On the day after cell seeding, 5 μL of the 10- compound stock solution was added to each cell culture well. As a result, the final concentration of the compound in the cell culture well became 1×, and the DMSO content in the well was 0.1%. In addition to the compound-treated wells described above, cell-containing DMSO control wells (with 5 μL of the complete medium containing 1% DMSO added to each well) and cell-free medium control wells (containing 50 μL of the complete medium with 2% FBS) were also set. The culture plate was incubated in an incubator at 37° C. with 5% CO2 for another 5 days, and then 30 μL of CellTiter-Glo working solution was added to each well. The mixture was well mixed, incubated for 30 min, left to stand at room temperature for 30 min, and then transferred to a white-bottomed, opaque 384-well assay plate at 40 μL/well. The chemiluminescence values (RLU) were measured using a microplate reader, and the cell proliferation inhibition rate for each well was calculated: IR (%)=(RLUDMSO—RLUcompound)/(RLUDMSO−RLUblank)×100%, where RLUDMSO is the average RLU signal value from the DMSO control well samples, RLUblank is the average RLU signal value from the medium control well samples, and RLUcompound is the RLU signal value from the compound-treated well samples. […]"}},
  "note": "Like-named read-outs stand apart in the source and are kept apart here.",
  "data": [
    {"smiles": "CCn1c(-c2cc(OCCN3CCOCC34CC4)cnc2[C@H](C)OC)c2c3cc(ccc31)-c1csc(n1)C[C@H](NC(=O)C1[C@@H](C)[C@H]1C)C(=O)N1CCC[C@H](N1)C(=O)OCC1(CC1)C2", "note": "(stereo partly drawn) [Compound Z385, (1r,2R,3S)—N-((3′S,4′S,Z)-2′-(5-(2-(7-oxa-4-azaspiro[2,5]octan-4-yl)ethoxy)-2-((S)-1-methoxyethyl)pyridin-3-yl)-1-ethyl-5′,7′-dioxospiro[cyclopropane-1,10′-8-oxa-2(4,2)-thiazola-1(5,3)-indola-6(1,3)-pyridazinacycloundecaphan]-4′-yl)-2,3-dimethylcyclopropane-1-carboxamide]", "values": [
      {"measurement": "IC50", "setting": "[1]; Homo sapiens, ASPC1, 3 h", "result": 33.5, "unit": "nM"},
      {"measurement": "IC50", "setting": "[2]; Homo sapiens, NCI-H441, 3 h", "result": 20.7, "unit": "nM"}
    ]},
    {"smiles": "CCn1c(-c2cc(C#CCN3CCC3)cnc2[C@H](C)OC)c2c3cc(ccc31)-c1csc(n1)C[C@H](NC(=O)CC1CC1)C(=O)N1CCC[C@H](N1)C(=O)OCC(C)(C)C2", "note": "[Compound Z999, N-((6^3S,4S,Z)-1^2-(5-(3-(azetidin-1-yl)prop-1-yn-1-yl)-2-((S)-1-methoxyethyl)pyridin-3-yl)-1^1-ethyl-10,10-dimethyl-5,7-dioxo-6^1,6^2,6^3,6^4,6^5,6^6-hexahydro-1^1H-8-oxa-2(4,2)-thiazola-1(5,3)-indola-6(1,3)-pyridazinacycloundecaphane-4-yl)-2-cyclopropylacetamide]", "values": [
      {"measurement": "IC50", "setting": "[1]; Homo sapiens, ASPC1, 3 h", "result": 3.57, "unit": "nM"},
      {"measurement": "IC50", "setting": "[2]; Homo sapiens, NCI-H441, 3 h", "result": 2.16, "unit": "nM"}
    ]},
    {"smiles": "CCn1c(-c2cc(C#CCN3CCS(=O)(=O)CC3)cnc2C(C)OC)c2c3cc(ccc31)-c1csc(n1)CC(NC(=O)CC1CC1)C(=O)N1CCCC(N1)C(=O)OCC(C)(C)C2", "note": "(atropisomer, axis not shown; (Ra)) [Compound Z962, 2-cyclopropyl-N-((6^3S,4S,Z)—(Ra)-1^2-(5-(3-(1,1-dioxidothiomorpholino)prop-1-yn-1-yl)-2-((S)-1-methoxyethyl)pyridin-3-yl)-1^1-ethyl-10,10-dimethyl-5,7-dioxo-6^1,6^2,6^3,6^4,6^5,6^6-hexahydro-1^1H-8-oxa-2(4,2)-thiazola-1(5,3)-indola-6(1,3)-pyridazinacycloundecaphane-4-yl)acetamide]", "values": [
      {"measurement": "IC50", "setting": "[1]", "result": 0.26, "unit": "nM"},
      {"measurement": "IC50", "setting": "[2]", "result": 0.15, "unit": "nM"}
    ]},
    {"smiles": "CCn1c(-c2cc(OCCN3CCS(=O)(=O)CC3)cnc2[C@H](C)OC)c2c3cc(ccc31)-c1csc(n1)C[C@H](NC(=O)[C@H]1[C@H](C)[C@@H]1C)C(=O)N1CCC[C@H](N1)C(=O)OCC(C)(C)C2", "note": "(atropisomer, axis not shown; (Sa)) [Compound Z470, (1r,2R,3S)—N-((6^3S,4S,Z)—(Sa)-1^2-(5-(2-(1,1-dioxidothiomorpholino)ethoxy)-2-((S)-1-methoxyethyl)pyridin-3-yl)-1^1-ethyl-10,10-dimethyl-5,7-dioxo-6^1,6^2,6^3,6^4,6^5,6^6-hexahydro-1^1H-8-oxa-2(4,2)-thiazola-1(5,3)-indola-6(1,3)-pyridazinacycloundecaphane-4-yl)-2,3-dimethylcyclopropane-1-carboxamide]", "values": [
      {"measurement": "IC50", "setting": "[1]", "result": 35.3, "unit": "nM"},
      {"measurement": "IC50", "setting": "[2]", "result": 69.4, "unit": "nM"}
    ]},
    {"smiles": "CCn1c(-c2cc(N3CCN(C)CC3)cnc2[C@H](C)OC)c2c3cc(ccc31)-c1csc(n1)C[C@H](Nc1nnc3n1CC(C)CC3)C(=O)N1CCC[C@H](N1)C(=O)OCC(C)(C)C2", "note": "(atropisomer, axis not shown; (Ra)) [Compound Z431]", "values": [
      {"measurement": "IC50", "setting": "[2]; Homo sapiens, NCI-H441, 3 h", "result": 44.4, "unit": "nM"},
      {"measurement": "IC50", "setting": "NCI-H441 cells", "result": 101, "unit": "nM"}
    ]},
    {"smiles": "CCn1c(-c2cc(N3CCN(C)CC3)cnc2[C@H](C)OC)c2c3cc(ccc31)-c1csc(n1)C[C@H](Nc1nnc3n1CCCC3)C(=O)N1CCC[C@H](N1)C(=O)OCC(C)(C)C2", "note": "(atropisomer, axis not shown; (Ra)) [Compound Z423]", "values": [
      {"measurement": "IC50", "setting": "[2]; Homo sapiens, NCI-H441, 3 h", "result": 33.3, "unit": "nM"},
      {"measurement": "IC50", "setting": "NCI-H441 cells", "result": 74.2, "unit": "nM"}
    ]},
    {"smiles": "CCn1c(-c2cc(C#CCN3CCCOCC3)cnc2[C@H](C)OC)c2c3cc(ccc31)-c1csc(n1)C[C@H](NC(=O)[C@H](C(C)C)N(C)[S@](C)(=O)=NC)C(=O)N1CCC[C@H](N1)C(=O)OCC(C)(C)C2", "note": "(single isomer, unassigned) [Compound Z912-1]", "values": [
      {"measurement": "IC50", "setting": "[2]; Homo sapiens, NCI-H441, 3 h", "result": 2.61, "unit": "nM"},
      {"measurement": "IC50", "setting": "NCI-H441 cells", "result": 5.13, "unit": "nM"}
    ]}
  ]
}
